Read-outs that look alike come from different tables or passages of the source.
How the values were obtained:
anesthetized rat = assay: Blood pressure-lowering effect in anesthetized rat; type: in vivo; details: duodenal administration; for Blood pressure-lowering effect ED30: dose causing a decrease in the blood pressure by 30%; for Blood pressure-lowering effect Half duration: half duration at ED30 (recovery to 50% of the maximum decrease in blood pressure)
Protocol: Male Sprague Dawley rats weighing 280 to 450 g were anesthetized with sodium pentobarbital (50 mg/kg, i.p.) and fixed in the supine position. A canula was inserted into the trachea of each animal. Then the blood pressure of the animal was measured (AP-621G, Nippon Kohden Corp.) through a polyethylene tube (PE50) inserted into the right femoral artery via a pressure transducer (Life Kit DTS, DX-300, Nippon Kohden Corp.) and the heart rate was determined from the pulse wave (AT-610G, Nippon Kohden Corp.). A canula (PE10) for injecting the maintenance anesthetic drug (sodium pentobarbital 20 mg/kg/h) was inserted into the right femoral vein. The abdominal region was medianly sectioned and a canula (PE50 connected to a injection needle 23G) for duodenal drug administration was inserted thereinto and fixed with Aronalpha for surgical use. After 60-90 minutes of recovery period, the drug was administered into duodenum. After administering the drug, the blood pressure was measured until the average blood pressure returned to the level before the administration.
As the indication of the blood pressure-lowering effect of each drug, the dose causing a decrease in the blood pressure by 30%, based on the level before the administration, was calculated from the dose-response curve and employed as the 30% effective dose (ED30). Moreover, the time required for the recovery to the level corresponding to 50% of the maximum decrease in the blood pressure (half duration) was measured at each dose. Then the half duration at the above-mentioned ED30 was calculated and employed as the indication of the lasting time of the blood pressure-lowering effect (half duration at ED30).
As the test compounds, use was made of the compounds of the present invention obtained in the above Examples. Table C summarizes the results. Table C

isolated rat aorta = assay: Test with the use of isolated rat aorta (relaxation of potassium chloride contraction); details: read-out: Rat aorta IC50
Protocol: The thoracic aorta was taken out from male Sprague Dawley rats weighing 450 to 600 g and cut into circular samples of 2 mm in width. […] The contraction reactions of the samples were isometrically recorded with FD pick-up. After 1 to 1.5 hours of equilibration, 30 mM potassium chloride was added to contract the tissue. […] As the test compounds, the invention compounds obtained in the above Examples were employed.

[1] = system: rat ischemia-reperfusion model; assay: Myocardial necrosis inhibitory effect in rat ischemia-reperfusion model; type: in vivo; parameters: LDH / CK: unit not given here; details: mean ± standard error; for NA/RA: necrosis area/risk area; for CK: serum creatine kinase activity after reflow; for LDH: serum lactate dehydrogenase activity after reflow
Protocol: Male Sprague Dawley rats weighing 270 to 410 g were anesthetized with sodium pentobarbital (50 mg/kg, i.p.) and fixed in the supine position. A canula was inserted into the trachea of each animal. Then the blood pressure of the animal was measured (AP-621G, Nippon Kohden Corp.) through a polyethylene tube (PE50, Becton Dickinson) inserted into the right femoral artery via a pressure transducer (Life Kit DTS, DX-300, Nippon Kohden Corp.) and the heart rate was determined from the pulse wave (AT-610G, Nippon Kohden Corp.). Two canulae (PE10 and PE50, Becton Dickinson) for injecting the maintenance anesthetic drug (sodium pentobarbital 20 mg/kg/h) and a coloring matter respectively were inserted into the right jugular vein. The left jugular vein was exposed for blood collection. The chest was opened by vertically sectioning the chest region from the third to fifth left ribs about 10 mm apart from the median line under artificial respiration with room air (Harvard respirator, model 683, rate : 60 strokes/min. tidal volume : 10 ml/kg body weight). Then the operative field was enlarged with a wound retractor and the heart sac was peeled off to thereby expose the heart. By using a curved round needle with thread for vascular tract (8mm, 6-0 black blaid silk, Matsuda Medical Industry), a thread of 4 to 5 mm in length was put in the left ventricle in the depth of 2 mm for ligating the coronary artery. After the completion of the operation, the animal was allowed to stand as such for 20 minutes or longer. After confirming that the blood pressure and the heart rate had been stabilized, the experiment was initiated.
In this experiment, use was made of eight groups of rats including: 1) a physiological saline (i.e., the solvent for SIN-1) group; 2) an SIN-1 (3 µg/kg/min) group; 3) another SIN-1 (10 µg/kg/min) group; 4) 1% DMSO-containing physiological saline (adjusted to pH 5 with hydrochloric acid, i.e., the solvent for the compounds of Examples 1 and 2) group; 5) a group of the compound of Example 1 (10 µg/kg/min); 6) another group of the compound of Example 1 (30 µg/kg/min); 7) a group of the compound of Example 2 (3 µg/kg/min); and 8) another group of the compound of Example 2 (10 µg/kg/min). Each drug was intravenously administered continuously for 75 minutes (from 15 minutes before the ligation of the coronary artery to the completion of the reflow) at a rate of 0.95 ml/h. Fifteen minutes after the initiation of the drug administration, the coronary artery was ligated and maintained for 30 minutes. The coronary artery was ligated by the snare method with the use of a polyethylene tube (PE160, Becton Dickinson) and a vascular clamp (C-17 grooved, Natsume). After 30-minutes reflow, the risk area (RA) and the necrosis area (NA) were measured.
The risk area and the necrosis area formed by ligating the coronary artery were measured by the double staining method with Evans blue and triphenyltetrazolium chloride (TTC) in the following manner. To clarify the risk area, the coronary artery was ligated again after the completion of the reflow. Subsequently, 1 ml of 5% Evans blue (Sigma) and a 1 M solution of KCl were successively injected into the jugular vein until the heart arrest. Thus, the non-risk area was stained dark blue. After the heart arrest, the heart was quickly taken out and washed with physiological saline. Then the left ventricle was separated and cut into circular slices of 3 mm in width with a trimming blade (Feather). To decide the necrosis area, these slices were incubated in a 0.1 M phosphate buffer (81 mM Na2HPO4: 19 mM NaH2PO4, pH 7.4) containing 1% TTC at 37°C for 5 minutes. Thus, living cells were exclusively stained red with TTC while the necrosis area was not stained. After staining with TTC, each wet slice was weighed, fixed with 20% formalin and then photographed while allowing to stand in physiological saline. […]

[2] = 10 µg/kg/min intravenously for 75 minutes
[3] = 30 µg/kg/min intravenously for 75 minutes
[4] = relaxation of continuous contraction due to 30 mM potassium chloride, thoracic aorta of male Sprague Dawley rats
[5] = 3 µg/kg/min intravenously for 75 minutes

| Compound | IC50 (isolated rat aorta; [4]) [nM] | further results |
| --- | --- | --- |
| CN1CCN([n+]2cc([N-]C(=O)CSc3cc(C(C)(C)C)c(O)c(C(C)(C)C)c3)on2)CC1 [Example 1, N-((3,5-Di-t-butyl-4-hydroxyphenylthio)acetyl)-3-(4-methylpiperazin-1-yl)sydnonimine] | – | Blood pressure-lowering effect ED30 (anesthetized rat): 5.5 mg/kg; Blood pressure-lowering effect Half duration (anesthetized rat): 151 min; IC50 (isolated rat aorta): 650 nM; NA/RA [1, 2]: 33.4±6.1%; CK [1, 2]: 3237±803; LDH [1, 2]: 1538±254; NA/RA [1, 3]: 22.3±6.1 p<0.01 vs. 4%; CK [1, 3]: 2772±496; LDH [1, 3]: 1339±343 |
| CC(=O)SC[C@@H](C)C(=O)[N-]c1c[n+](N2CCN(C(=O)[C@@H]3CSC(=O)N3)CC2)no1 [Example 28, N-((S)-3-(Acetylthio)isobutyryl)-3-(4-((R)-2-oxo-4-thiazolidinecarbonyl)piperazin-1-yl)sydnonimine] | 710 | – |
| COc1cc(CC(=O)N2CCN([n+]3cc([N-]C(=O)CSC(=O)c4ccccc4)on3)CC2)cc(OC)c1OC [Example 32] | 45 | – |
| CC(C)(C)c1cc(SCC(=O)N2CCN([n+]3cc([N-]C(=O)CSC(=O)c4ccccc4)on3)CC2)cc(C(C)(C)C)c1O [Example 33, N-((Benzoylthio)acetyl)-3-(4-(3,5-di-t-butyl-4-hydroxyphenylthio)acetylpiperazin-1-yl)sydnonimine] | 180 | – |
| CC(=O)SCC(=O)[N-]c1c[n+](N2CCN(C(=O)CSC(C)=O)CC2)no1 [Example 38-C, N-((Acetylthio)acetyl)-3-(4-((acetylthio)acetyl)piperazin-1-yl)sydnonimine] | 230 | – |
| COc1cc(CC(=O)N2CCN([n+]3cc([N-]C(=O)CSC(C)=O)on3)CC2)cc(OC)c1OC [Example 40, N-((Acetylthio)acetyl)-3-(4-((3,4,5-trimethoxyphenyl)acetyl)piperazin-1-yl)sydnonimine] | – | IC50 (isolated rat aorta): 280 nM |
| COc1cc(CCN2CCN([n+]3cc([N-]C(=O)[C@H](C)CSC(=O)c4ccccc4)on3)CC2)cc(OC)c1OC [Example 45, N-((S)-3-(Benzoylthio)isobutyryl)-3-(4-(2-(3,4,5-trimethoxyphenyl)ethyl)piperazin-1-yl)sydnonimine] | 780 | – |
| COc1ccc(CN2CCN([n+]3cc([N-]C(=O)CSc4cc(C(C)(C)C)c(O)c(C(C)(C)C)c4)on3)CC2)cc1OC [Example 47, N-((3,5-Di-t-butyl-4-hydroxyphenylthio)acetyl)-3-(4-(3,4-dimethoxyphenylmethyl)piperazin-1-yl)sydnonimine] | 940 | – |
| COc1cc(CN2CCN([n+]3cc([N-]C(=O)CSC(C)=O)on3)CC2)cc(OC)c1OC [Example 48, N-((Acetylthio)acetyl)-3-(4-(3,4,5-trimethoxyphenylmethyl)piperazin-1-yl)sydnonimine] | 110 | – |
| COc1cc(CN2CCN([n+]3cc([N-]C(=O)CSC(=O)c4ccccc4)on3)CC2)cc(OC)c1OC [Example 49, N-((Benzoylthio)acetyl)-3-(4-(3,4,5-trimethoxyphenylmethyl)piperazin-1-yl)sydnonimine] | 46 | – |
| COc1ccc(CN2CCN([n+]3cc([N-]C(=O)CSC(C)=O)on3)CC2)c(OC)c1OC [Example 50, N-((Acetylthio)acetyl)-3-(4-(2,3,4-trimethoxyphenylmethyl)piperazin-1-yl)sydnonimine] | 140 | – |
| C[C@H](CSC(=O)c1ccccc1)C(=O)[N-]c1c[n+](N2CCN(CCSC(=O)c3ccccc3)CC2)no1 [Example 52-B, N-((S)-3-(Benzoylthio)isobutyryl)-3-(4-(2-(benzoylthio)ethyl)piperazin-1-yl)sydnonimine] | 420 | – |
| CC(=O)SC[C@@H](C)C(=O)[N-]c1c[n+](N2CCOCC2)no1 [Example 67, N-((S)-3-(Acetylthio)isobutyryl)-3-morpholinosydnonimine] | 540 | – |

Further compounds by falling IC50 (isolated rat aorta; [4]), results first:

| IC50 (isolated rat aorta; [4]) [nM] | Compound | further results |
| --- | --- | --- |
| 910 | COc1cc(CCN(C)[n+]2cc([N-]C(=O)[C@H](C)CSC(=O)c3ccccc3)on2)cc(OC)c1OC [Example 64, N-((S)-3-(Benzoylthio)isobutyryl)-3-(N'-(2-(3,4,5-trimethoxyphenyl)ethyl)-N'-methylamino)sydnonimine] | – |
| 850 | Cl.N=c1c[n+](N2CCOCC2)[n-]o1 [SIN-1, 3-morpholinosydnonimine hydrochloride, reference compound] | Blood pressure-lowering effect ED30 (anesthetized rat): 1.0 mg/kg; Blood pressure-lowering effect Half duration (anesthetized rat): 75 min; NA/RA [1, 5]: 18.5±4.3%; CK [1, 5]: 3138±207; LDH [1, 5]: 1082±60; NA/RA [1, 2]: 19.3±5.2%; CK [1, 2]: 2853±507; LDH [1, 2]: 1196±166 |
| 630 | COc1cc(CC(=O)N2CCN([n+]3cc([N-]C(=O)[C@H](C)CSC(C)=O)on3)CC2)cc(OC)c1OC [Example 25] | – |
| 630 | CC(=O)SC[C@@H](C)C(=O)[N-]c1c[n+](N2CCN(C(=O)[C@H](C)CSC(=O)c3ccccc3)CC2)no1 [Example 29, N-((S)-3-(Acetylthio)isobutyryl)-3-(4-((S)-3-(benzoylthio)isobutyryl)piperazin-1-yl)sydnonimine] | – |
| 470 | CC(=O)SC[C@@H](C)C(=O)[N-]c1c[n+](N2CCN(C(=O)CSc3cc(C(C)(C)C)c(O)c(C(C)(C)C)c3)CC2)no1 [Example 24-D] | – |
| 300 | COc1ccc(CN2CCN([n+]3cc([N-]C(=O)CSC(=O)c4ccccc4)on3)CC2)c(OC)c1OC [Example 51, N-((Benzoylthio)acetyl)-3-(4-(2,3,4-trimethoxyphenylmethyl)piperazin-1-yl)sydnonimine] | – |
| 120 | CC(=O)SCC(=O)N1CCN([n+]2cc([N-]C(=O)CSC(=O)c3ccccc3)on2)CC1 [Example 30-D, 3-(4-(Acetylthio)acetyl)piperazin-1-yl)-N-((benzoylthio)acetylsydnonimine] | – |
| 36 | O=C(CSC(=O)c1ccccc1)[N-]c1c[n+](N2CCN(C(=O)CSC(=O)c3ccccc3)CC2)no1 [Example 31] | – |
